Data as given in BindingDB's records for doi:10.1021/jm00367a006 (1984).

Biological target: dopamine D1 receptor (Rattus norvegicus)
Assay: Effective concentration that gives maximal stimulation of cyclic AMP production over the concentration range tested.

| Structure (SMILES) | EC50 |
| --- | --- |
| CN1Cc2c(N)cccc2[C@H](c2ccc(O)c(O)c2)C1 | 1870 nM |
| CN1Cc2c(N)cccc2C(c2ccc(O)c(O)c2)C1 (configuration not stated) [4-(8-Amino-2-methyl-1,2,3,4-tetrahydro-isoquinolin-4-yl)-benzene-1,2-diol] | 2880 nM |
